{
  "source": "patent US20240002424A1",
  "about": "“HEXOSAMINE COMPOUNDS AND METHODS THEREOF” (National Institute of Immunology, priority 2021, published 2024)",
  "key": {"[1]": {"test_system": "HL-60 cells", "test": "NeuAz expression by SPAAC with DBCO-Cy5 and flow cytometry, competition with 1c", "assay_type": "cell-based, human", "conditions": "50 μM with 1c 50 μM, 24 h", "experimental": "Estimation of NeuAz expression by 1c in the presence of peracetylated ManNAc analogues: Jurkat cells (3.0×10^5 cells/mL in 3.0 mL per well in 6-well plates) were incubated with (i) D, (ii) 1a, 1b, 1c, or 1d alone (50 mM) or (iii) 1a, 1b, or 1d (50 mM) in combination with 1c (50 mM). After 24 h, cells were harvested, washed using FSB, aliquoted to 5.0×10^5 cells per sample, and processed as mentioned above for estimation of NeuAz expression using DBCO-Cy5 ([…]). Experiments using HL-60 cells were performed using the same procedure.\nHaving confirmed metabolic acceptability in Jurkat cells, the compounds were tested on HL-60 (human acute myeloid leukemia) cells which are a reliable model for neutrophil adhesion. The effect on competitive suppression of NeuAz expression was studied using 1c as a reporter. HL-60 cells were treated with 1c either alone (50 μM) or in combination with ManNAc analogues (50 μM), including the straight chain derivatives, for 24 h followed by DBCO-Cy5 ligation. […] The decreasing ability of linear alkyl moieties (1d-1g), as a function of chain length, for suppression of NeuAz expression is in contrast to the cycloalkyl moieties. […] Similarly, 1a induced a reduction of 40% compared to only a 15% reduction by 1f."}, "[2]": {"test_system": "HL-60 cells", "test": "Cell surface sialyl-Lewis-X (CD15s) by anti-CD15s (CSLEX1) flow cytometry", "assay_type": "cell-based, human", "conditions": "50 μM, 24 h", "experimental": "Effect of ManNAc analogues on the expression of sialyl-Lewis-X and Lewis-X: HL-60 cells (3.0×10^5 cells/mL in 2.0 mL complete medium in 6 well plate) were treated with D (vehicle), 1a, 1b, 1c, 1d, 1e, 1f, or 1g (50 PM), along with untreated (U) control. After 24 h, cells were harvested and washed with PBS (3×0.5 mL, 3000×g, 3.0 min at room temperature). Prior to last wash, cells were counted using Z2 coulter counter and aliquoted at 2.5×10^5 cells per sample and stained with either mouse anti-human CD15s (CSLEX1) (1.25 μg/mL) or mouse anti-human CD15 (HI98) (2.5 μg/mL) in HEPES/CaCl2) buffer (30 mM HEPES, 110 mM NaCl, 10 mM KCl, 2 mM MgCl2, 10 mM glucose, 1.5 mM CaCl2) containing 0.1% bovine serum albumin, pH 7.3) (total volume of 100 μL) for 30 min at 4° C. Cells were washed with HEPES/CaCl2 buffer (2×0.5 mL) and stained with AlexaFluor488-conjugated anti-mouse IgM (2.5 μg/mL) (for both CD15s and CD15) in 100 μL HEPES/CaCl2 for 30 min at 4° C. Cells were washed with HEPES/CaCl2 buffer (2×0.5 mL), resuspended in PBS (0.2 mL), treated with PI (2.5 μg/ml) and analysed by BD FACSVerse. Samples treated with (i) isotype antibodies followed by secondary antibody and (ii) secondary antibody alone were prepared as controls. Single Cells were gated for PI-negative population for 10,000 events and analysed by flow cytometry. Two replicate samples were prepared for each condition and each sample was counted twice. Three independent experiments were performed. Data was analysed using FlowJo V10. For plotting graph and calculation of significant probability ‘p’ values, two-way ANOVA with Dunnett's multiple comparison tests was employed in GraphPad Prism 8.\nTime course of CD15s expression: HL-60 cells (3.0×10^5 cells/mL in 2.5 mL complete medium in 6-well plates) were incubated with D, 1a, 1b, or 1d (50 mM). At each time point, from day 1 to day 6, the cells were harvested from the entire contents of the well, washed, and aliquoted to 5.0×10^5 cells per sample, and immuno-stained using anti-CD15s (CSLEX1) antibody as mentioned above. On day 3, 4, and 5 complete media (1.0 mL) was added to each remaining well in order to compensate for media exhaustion. No contents were removed from the well during the period."}, "[3]": {"test_system": "HL-60 cells", "test": "Western blot of total lysates for sLeX (CSLEX1) epitopes", "assay_type": "cell-based, human", "conditions": "HL-60 total lysates; 50 μM, 72 h", "experimental": "Effect of ManNAc analogues on expression of CD15s epitopes: HL-60 cells (3.0×10^5 cells/mL in 10 mL complete medium in 10 cm diameter petri dishes) were incubated with D, 1a, 1b, 1d, 1e, 1f, or 1g (50 mM), along with untreated (U) controls. After 72 h, cells were harvested, washed with PBS (3×5.0 mL), and lysed in RIPA buffer (10^7 cells in […]), containing protease inhibitor cocktail (PIC, 1:100). Protein concentration of the soluble fraction was estimated using the Bradford assay. Proteins from total lysates were resolved by 7.5% SDS-PAGE and blotted onto nitrocellulose membrane (constant current of 250 mA for 3.0 h at 4° C.). Membranes were blocked using non-fat milk (NFM) (5.0% w/v) in PBS and incubated with primary antibodies (5.0 mL PBS containing 5.0% NFM) overnight at 4° C. Membranes were washed with 0.1% PBS-T (0.1% v/v tween-20 in PBS; 3×5.0 mL, five min each at room temperature) followed by incubation with appropriate fluorophore or horse radish peroxidase (HRP) conjugated secondary antibodies for 1.0 h at room temperature. Membranes were washed with 0.1% PBS-T (3×5.0 mL, five min each) and then either directly scanned using Amersham Typhoon fluorescence scanner or developed on photographic films after treatment with enhanced chemiluminescence reagents. At least two independent replicate experiments were performed for all the blots.\nThe primary and secondary antibodies employed, along with dilution and stock concentration, are given below: Primary antibodies: Anti-CD15s (CSLEX1; IgM, dilution 1:5000; stock concentration 0.5 mg/mL) Anti-CLA (HECA452; IgM, dilution 1:1000, stock concentration 0.5 mg/mL) […] (AC15, IgG, dilution 1:20000, stock concentration 2.2 mg/mL); and Secondary Antibodies: AlexaFluor488-conjugated anti-mouse IgM (1:10000, stock concentration 2.0 mg/mL) AlexaFluor488-conjugated anti-rat IgM (1:10000, stock concentration 0.5 mg/mL) HRP-conjugated anti-mouse IgG (1:10000, stock concentration 0.8 mg/mL) Cy5-conjugated donkey anti-mouse IgG (1:10000, stock concentration 1.4 mg/mL) AlexaFluorplus488-conjugated anti-mouse IgG (1:10000, stock conc. 2.0 mg/mL)."}, "[4]": {"test_system": "HL-60 cells", "test": "Total and glycoside bound sialic acids by periodate-resorcinol assay", "assay_type": "cell-based, human", "conditions": "100 μM, 48 h", "experimental": "Total sialic acids were measured following reported procedures. HL-60 cells (3.0×10^5 cells/mL in 10 mL complete medium in 10 cm diameter Petri dishes) were incubated with D, 1a, 1b, 1c, 1d, 1e, 1f, 1g, 2a, or 2b (100 mM each), along with untreated (U) controls. After 48 h, cells were harvested, washed with PBS (3×5.0 mL; 3000×g, for 2.0 min), aliquoted to 2×10^6 cells per sample and resuspended in PBS (150 mL) in 1.5 mL microcentrifuge tubes. Cells were lyzed by three freeze-thaw cycles and the total lysates were subjected to periodate-resorcinol assay. Briefly, lysates (150 mL) were treated with 0.4 M aqueous periodic acid (6.67 mM) or (2.5 mL) and incubated either on ice for 15 min (for measurement of total sialic acids) or at 37° C. for 1.0 h (for measurement of glycoconjugate bound sialic acids). About 10 mL of reagent cocktail was prepared using 6% w/v of aqueous resorcinol (1.0 mL), 2.5 mM copper (II) sulfate (1.0 mL), 44% of concentrated hydrochloric acid (4.4 mL), and water (3.6 mL). The mixture was then treated with the reagent cocktail (250 mL per sample), boiled at 100° C. for 10 min, rapidly quenched in an ice-bath and treated with tert-butanol (250 mL). The contents were centrifuged and the supernatants were aliquoted (200 mL) into 96-well plates and the absorbance at 630 nm was measured. At least three replicates were prepared for each condition."}, "[5]": {"test_system": "neural cell adhesion molecules (NCAM)", "conditions": "cited from earlier work"}, "[6]": {"test_system": "HL-60 cells", "test": "Cell surface sialyl-Lewis-X (CD15s) by anti-CD15s (CSLEX1) flow cytometry", "assay_type": "cell-based, human", "conditions": "single dosage 50 μM"}, "[7]": {"test_system": "HL-60 cells", "test": "Cell density as a measure of proliferation/cytotoxicity", "assay_type": "cell-based, human", "conditions": "100 μM, cell density measured at 24, 48, and 72 h"}, "[8]": {"test_system": "HL-60 cells", "conditions": "10 mM; cited from earlier work"}},
  "data": [
    {"smiles": "CCCC(=O)N[C@@H]1[C@@H](OC(C)=O)O[C@H](COC(C)=O)[C@@H](OC(C)=O)[C@@H]1OC(C)=O", "note": "[Compound 1f, 1,3,4,6-tetra-O-acetyl-2-(1-butanoyl)amino-2-deoxy-α-D-mannopyranose]", "values": [
      {"measurement": "NeuAz expression with respect to 1c alone (100%)", "setting": "[1]", "result": 85, "unit": "%"},
      {"measurement": "reduction of NeuAz expression with respect to controls", "setting": "[1]", "result": 15, "unit": "%"},
      {"measurement": "suppression of NeuAz expression (in words)", "setting": "[1]", "result": "moderate suppression"},
      {"measurement": "increase in binding of CSLEX1 antibody (sLeX), in words", "setting": "[2]", "result": "three-fold increase"},
      {"measurement": "sLeX (CSLEX1) bands between 150-100 kDa in western blot", "setting": "[3]", "result": "moderate increase"},
      {"measurement": "glycoside bound sialic acid levels (in words)", "setting": "[4]", "result": "comparable to untreated cells"},
      {"measurement": "inhibition of polysialic acid attachment to NCAM", "setting": "[5]", "result": "efficient inhibitor"}
    ]},
    {"smiles": "CCCCC(=O)N[C@@H]1C(OC(C)=O)O[C@H](COC(C)=O)[C@@H](OC(C)=O)[C@@H]1OC(C)=O", "note": "(stereo partly drawn) [Compound 1g, 1,3,4,6-tetra-O-acetyl-2-(1-pentanoyl)amino-2-deoxy-D-mannopyranose]", "values": [
      {"measurement": "NeuAz expression with respect to 1c alone (100%)", "setting": "[1]", "result": 90, "unit": "%"},
      {"measurement": "reduction of NeuAz expression with respect to controls", "setting": "[1]", "result": 10, "unit": "%"},
      {"measurement": "suppression of NeuAz expression (in words)", "setting": "[1]", "result": "mild effect"},
      {"measurement": "maximum increase in sLeX levels on day 2", "setting": "[6]; day 2", "result": 2.2, "unit": "fold"},
      {"measurement": "sLeX levels by day 6 (in words)", "setting": "[6]; day 6", "result": "returned to normal levels"},
      {"measurement": "day of peak sLeX expression", "setting": "[6]; time course day 1 to day 6", "result": 2, "unit": "days"},
      {"measurement": "increase in binding of CSLEX1 antibody (sLeX) compared to controls", "setting": "[2]", "result": "~2.5", "unit": "fold"},
      {"measurement": "sLeX (CSLEX1) bands between 150-100 kDa in western blot", "setting": "[3]", "result": "moderate increase"},
      {"measurement": "decrease in cell density", "setting": "[7]", "result": "~10", "unit": "%"},
      {"measurement": "decrease in total sialic acid levels", "setting": "[4]", "result": 0.7, "unit": "fold"},
      {"measurement": "ratio of total sialic acids to glycoside bound sialic acids vs untreated cells", "setting": "[4]", "result": "lower ratios"}
    ]},
    {"smiles": "CCC(=O)N[C@@H]1C(O)O[C@H](CO)[C@@H](O)[C@@H]1O", "note": "(stereo partly shown) [ManNProp]", "values": [
      {"measurement": "expression of sLeX epitopes (KM93 antibody), particularly on PSGL-1/CD162", "setting": "[8]", "result": "enhanced expression of sLeX epitopes"}
    ]}
  ]
}
